Positions count from the first letter of the chain named. Numbers in names are those of the source. One block for each molecule: values may come before it.
What was measured:
[1] = molecular target: T1, purified recombinant CBL protein containing the TKBD-LHR-RING region (Homo sapiens, UniProt P22681); test: High-throughput in vitro autoubiquitination assay (modified ELISA-based LifeSensors assay, 384 well), hit validation; assay type: biochemical; details: validation: triplicate wells; confirmed at percent activation cutoff of at least 20% in at least 2 wells
T1 construct: Residues 25-357 and 2-436 of CBL were cloned in frame into pGEX4T-1; GST (N); made in house
T1 sequence (P22681 2-436): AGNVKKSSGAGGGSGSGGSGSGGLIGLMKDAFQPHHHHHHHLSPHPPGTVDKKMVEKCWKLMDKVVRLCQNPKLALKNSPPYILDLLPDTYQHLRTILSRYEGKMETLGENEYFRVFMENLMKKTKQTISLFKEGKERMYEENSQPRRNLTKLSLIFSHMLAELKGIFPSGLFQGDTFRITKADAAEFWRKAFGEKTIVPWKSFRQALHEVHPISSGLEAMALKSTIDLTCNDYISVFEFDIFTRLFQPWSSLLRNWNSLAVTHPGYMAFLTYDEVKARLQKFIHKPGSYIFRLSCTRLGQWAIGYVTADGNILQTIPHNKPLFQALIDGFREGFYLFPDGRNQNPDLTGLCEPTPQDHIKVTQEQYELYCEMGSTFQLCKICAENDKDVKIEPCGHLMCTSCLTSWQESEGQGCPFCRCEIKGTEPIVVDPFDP
Text: As an approach to identify novel compounds that mimic SLAP2 binding, and thus stimulate CBL E3 ligase activity, an in vitro autoubiquitination assay was developed based on a modification of a commercially available ELISA based assay (LifeSensors, Inc) and adapted to a 384 well high throughput screen (HTS) format (FIG. 13). The assay uses purified recombinant CBL protein containing the TKBD-LHR-RING region and has been optimized using reference controls; phosphorylated CBL, and CBL with or without addition of purified pSLAP2. Reaction components contained in a master mix (E1, E2, free Ub), test compound and purified CBL are free in solution allowing native protein interactions, and polyubiquitin chains are captured by an immobilized ubiquitin binding domain and quantified using an anti-ubiquitin antibody detection method.
Peptidomimetic Screen: A library of 3000 α-helix and β/γ-turn peptidomimetic compounds were screened across 10 384 well plates. A primary screen yielded 14 hits from the OICR Peptidomimetic library (0.47% hit rate). A hit was defined as any compound producing a luminescent signal at least 4 Standard Deviations from the mean of all compounds on the plate (FIG. 14).
Validation experiment: Triplicate wells of hit compounds were randomly dispersed on plates and hits were confirmed based on a percent activation cutoff of at least 20% in at least 2 wells.

CBL TKBD = test: Co-purification of CBL TKBD with Trx-His-SLAP2/SLAP (Duet co-expression, Ni-NTA, SDS-PAGE); assay type: binding; details: low salt concentration (0.15 M NaCl)
Text: To validate the CBL/SLAP2 binding interface, a series of mutants in a Duet co-expression vector system was generated for co-purification trials. The SLAP2 sequence was preceded by thioredoxin (Trx) and His-tag fusion proteins to allow co-purification of CBL TKBD that was bound to Trx-His-SLAP2 during the initial affinity chromatography purification step. Surface residues deemed to be important to the CBL/SLAP2 interface, but not CBL function or folding, were mutated to disrupt CBL/SLAP2 binding (FIG. 5C and FIG. 6). In our structure, SLAP2 Gly240 locates close to CBL Met269 and Ala270, such that mutation to a bulky Arg residue (G240R) could cause sterical constraints. Similarly, SLAP2 Leu241 is situated in a hydrophobic cleft composed of CBL Ala223, Trp258, and Val263; mutation to Arg (L241R) was predicted to disturb this binding pocket. Mutation of CBL Ala223 to Arg (A223R) would likewise disrupt this pocket, with CBL/SLAP2 double mutant A223R/L241R predicted to drastically disturb binding through sterical constraints and charge repulsion. (For clarity, CBL mutations herein are indicated in italics, SLAP2 in regular font.) Similarly, single or double mutation of CBL Ser226 or SLAP2 Ser244, whose side chain hydroxyl groups are in close proximity to one another, to charged Glu residues (S226E and S244E) was anticipated to interfere with CBL/SLAP2 binding. Finally, given that SLAP2 binds CBL as an α-helix, mutation of Leu245, located in the center of this α-helix, to proline (L245P) was expected to interrupt the helical structure and thus prevent SLAP2 binding. […] However, double mutation of the CBL/SLAP2 interface (A223R/L241R and S226E/S244E; FIG. 5D, lower panel) was not tolerated, even at low salt concentration.
For co-purification of CBL and SLAP2/SLAP, Duet-His-hSLAP2-CBL 29-261 Δ198-229 and 29-254 Δ198-229, Duet-His-Δlinker-hSLAP2-CBL WT and point mutants, and Duet-His-mSLAP-CBL WT and point mutants were overexpressed in E. coli BL-21 as above or TKB1 competent cells (Stratagene) as per manufacturer’s instructions, and cells harvested as above (except 100 mL of LB, overnight at 16-18° C., and 0.35-0.5 mM IPTG induction). Cell pellets were resuspended in either high or low salt (as for high salt except 25 mM HEPEs pH 7.5, 150 mM NaCl) lysis buffer and purified as above on Ni-NTA agarose (Qiagen) with wash buffer (25 mM HEPEs pH 7.5, 150 mM NaCl, 2% glycerol, 20 mM imidazole, 10 mM βME). Bead slurry was mixed with SDS 2X loading buffer (125 mM Tris pH 6.8, 4% SDS, 20% glycerol, 0.715 M βME, bromophenol blue), boiled, and analyzed by 10 or 12.5% SDS-PAGE, stained with Coomassie blue.

Molecule: COc1ccc(CNC(=O)C2(C)CCCN(S(=O)(=O)c3cccc(C(F)(F)F)c3)C2)cc1 (stereo not drawn) [Hit 4, N-[(4-methoxyphenyl)methyl]-3-methyl-1-[3-(trifluoromethyl)benzenesulfonyl]piperidine-3-carboxamide]
confirmed hit: CBL activation [1]: active

Molecule: O=S(=O)(Nc1ccc(Cl)c(C(F)(F)F)c1)c1cc(-c2noc(C3CCC3)n2)cs1 [Hit 5, N-[4-chloro-3-(trifluoromethyl)phenyl]-4-(5-cyclobutyl-1,2,4-oxadiazol-3-yl)thiophene-2-sulfonamide]
confirmed hit: CBL activation [1]: active

Molecule: COc1ccc(S(=O)(=O)Nc2cccn3c(C4CCC4)nnc23)cc1Cl [Hit 3, 3-chloro-N-{3-cyclobutyl-[1,2,4]triazolo[4,3-a]pyridin-8-yl}-4-methoxybenzene-1-sulfonamide]
confirmed hit: CBL activation [1]: active

Molecule: O=S(=O)(Nc1cccc(Br)c1)c1ccc(-c2nnc(C3CCC3)o2)s1 [Hit 2, N-(3-bromophenyl)-5-(5-cyclobutyl-1,3,4-oxadiazol-2-yl)thiophene-2-sulfonamide]
confirmed hit: CBL activation [1]: active

Molecule: Cc1cc2c(cc1C(=O)NCc1c(F)cccc1Cl)OCCCO2 [Hit 1, N-[(2-chloro-6-fluorophenyl)methyl]-8-methyl-3,4-dihydro-2H-1,5-benzodioxepine-7-carboxamide]
confirmed hit: CBL activation [1]: active

B1: SLAP2 L241R: SLAP2 interface point mutant Leu241 to Arg (protein)
chain: EAERSKATAVALGSFPAGGPAELSLRLGEPLTIVSEDGDWWTVLSEVSGREYNIPSVHVAKVSHGWLYEGLSREKAEELLLLPGNPGGAFLIRESQTRRGSYSLSVRLSRPASWDRIRHYRIHCLDNGWLYISPRLTFPSLQALVDHYSELADDICCLLKEPCVLQRAGPLPGKDIPLPVTVQRTPLNWKELDSSLLFSEAATGEESLLSEGRRESLSFYISLNDEAVSLDDA
modifications: left off: large carriers; small tags and cut ends
notes: SLAP2 interface point mutant Leu241 to Arg
CBL TKBD co-purification (CBL TKBD): abrogated CBL co-purification

B2: SLAP2 S244E: SLAP2 interface point mutant Ser244 to Glu (protein)
chain: B1 chain with R213L, S216E
modifications: left off: large carriers; small tags and cut ends
notes: SLAP2 interface point mutant Ser244 to Glu
CBL TKBD co-purification (CBL TKBD): tolerated

B3: SLAP2 G240R: SLAP2 interface point mutant Gly240 to Arg (protein)
chain: B1 chain with G212R, R213L
modifications: left off: large carriers; small tags and cut ends
notes: SLAP2 interface point mutant Gly240 to Arg
CBL TKBD co-purification (CBL TKBD): tolerated

B4: SLAP2 L245P: SLAP2 point mutant Leu245 to proline, expected to interrupt the helix (protein)
chain: B1 chain with R213L, L217P
modifications: left off: large carriers; small tags and cut ends
notes: SLAP2 point mutant Leu245 to proline, expected to interrupt the helix
CBL TKBD co-purification (CBL TKBD): abrogated CBL co-purification

B5: SLAP L241R: mouse SLAP interface mutant analogous to SLAP2 L241R (protein, UniProt Q60898 2-281, looked up, variant L241R)
Src-like-adapter: GNSMKSTSPPSERPLSSSEGLESDFLAVLTDYPSPDISPPIFRRGEKLRVISDEGGWWKAISLSTGRESYIPGICVARVYHGWLFEGLGRDKAEELLQLPDTKIGSFMIRESETKKGFYSLSVRHRQVKHYRIFRLPNNWYYISPRLTFQCLEDLVTHYSEVADGLCCVLTTPCLAQNIPAPTSHPSPCTSPGSPVTLRQKTFDWKRVSRLQEGSEGAENPLRVDESLFSYGLRESIASYRSLTGDDSSSFDRKKKSLSLMYTGSKRKSSFFSAPQYFED
CBL TKBD co-purification (CBL TKBD): abrogated CBL co-purification

Now from value to molecule:

confirmed hit: CBL activation [1]: active
Molecule: O=S(=O)(Nc1ccc(OC(F)(F)F)cc1)c1ccc(-c2cnc(C3CCC3)o2)s1 [Hit 6, 5-(2-cyclobutyl-1,3-oxazol-5-yl)-N-[4-(trifluoromethoxy)phenyl]thiophene-2-sulfonamide]

confirmed hit: CBL activation [1]: active
Molecule: CC(C)OCCCNC(=O)c1cnc2scc(-c3ccccc3)n2c1=O [Hit 10, 5-oxo-3-phenyl-N-[3-(propan-2-yloxy)propyl]-5H-[1,3]thiazolo[3,2-a]pyrimidine-6-carboxamide]

confirmed hit: CBL activation [1]: active
Molecule: O=C(NCC(=O)N1CCN(c2ccc(-c3noc(C4CCC4)n3)cc2)CC1)c1ccco1 [Hit 9, N-(2-{4-[4-(5-cyclobutyl-1,2,4-oxadiazol-3-yl)phenyl]piperazin-1-yl}-2-oxoethyl)furan-2-carboxamide]

confirmed hit: CBL activation [1]: active
Molecule: Cc1ccc(CN2CCN(CC(=O)Nc3ccc(C(C)C)cc3)C(=O)C2=O)cc1 [Hit 8, 2-{4-[(4-methylphenyl)methyl]-2,3-dioxopiperazin-1-yl}-N-[4-(propan-2-yl)phenyl]acetamide]

confirmed hit: CBL activation [1]: active
Molecule: Cc1ccc(S(=O)(=O)N2C(=O)CCC2C(=O)Nc2cccc3ccccc23)cc1 (stereo not drawn) [Hit 7, 1-(4-methylbenzenesulfonyl)-N-(naphthalen-1-yl)-5-oxopyrrolidine-2-carboxamide]

— patent US20230212239A1, “INHIBITORS OF CBL AUTOINHIBITION AND RELATED METHODS” (THE HOSPITAL FOR SICK CHILDREN, priority 2020, published 2023)
